# In ChEMBL document CHEMBL4715875, “Evaluation of the in Vivo Aphrodisiac Activity of a Cyclotide Extract from Hybanthus enneaspermus” (2020):
# Positions of bridges follow the written chain, without caps; N, C: chain ends. Residues, ends and D or L forms follow the SMILES beside them.
# Assays:
# Format in all cases: functional
# Rattus norvegicus [1] = assay: Induction of libido-enhancing activity in Wistar rat assessed as number of intromission at 5 mg/kg, po pre-treated for 30 mins followed by female rat introduction and measured up to 2 hrs (reference value: 76 +/- 11); details: time hrs <=2.5
# Rattus norvegicus [2] = assay: Induction of libido-enhancing activity in Wistar rat assessed as number of intromission at 5 mg/kg, po pre-treated for 30 mins followed by female rat introduction and measured up to 1 hr (reference value: 63 +/- 7.7); details: time hrs <=1.5
# Rattus norvegicus [3] = assay: Induction of libido-enhancing activity in Wistar rat assessed as total number of mount at 5 mg/kg, po pre-treated for 30 mins followed by female rat introduction (reference value: 3.9 +/- 1.2); details: 0.5 h
# Rattus norvegicus [4] = assay: Induction of libido-enhancing activity in Wistar rat assessed as number of mount at 5 mg/kg, po pre-treated for 30 mins followed by female rat introduction and measured up to 3 hrs (reference value: 3.9 +/- 1.2); details: time hrs <=3.5
# Rattus norvegicus [5] = assay: Induction of libido-enhancing activity in Wistar rat assessed as number of mount at 5 mg/kg, po pre-treated for 30 mins followed by female rat introduction and measured up to 2 hrs (reference value: 9.1 +/- 3); details: time hrs <=2.5
# Rattus norvegicus [6] = assay: Induction of libido-enhancing activity in Wistar rat assessed as number of mount at 5 mg/kg, po pre-treated for 30 mins followed by female rat introduction and measured up to 1 hr (reference value: 16 +/- 6.9); details: time hrs <=1.5
# Rattus norvegicus [7] = assay: Induction of libido-enhancing activity in Wistar rat assessed as copulatory plugs at 5 mg/kg, po pre-treated for 30 mins followed by female rat introduction and measured up to 3 hrs (reference value: 4.2 +/- 0.6 sec); details: time min <=210
# Rattus norvegicus [8] = assay: Induction of libido-enhancing activity in Wistar rat assessed as ejaculation post interval time at 5 mg/kg, po pre-treated for 30 mins followed by female rat introduction and measured up to 3 hrs (reference value: 760 +/- 50 sec); details: time min <=210
# Rattus norvegicus [9] = assay: Induction of libido-enhancing activity in Wistar rat assessed as ejaculation latency latency time at 5 mg/kg, po pre-treated for 30 mins followed by female rat introduction and measured up to 3 hrs (reference value: 1300 +/- 320 sec); details: time min <=210
# Rattus norvegicus [10] = assay: Induction of libido-enhancing activity in Wistar rat assessed as intromission ratio at 5 mg/kg, po pre-treated for 30 mins followed by female rat introduction and measured up to 3 hrs (reference value: 86 +/- 4.1%); details: time min <=210
# Rattus norvegicus [11] = assay: Induction of libido-enhancing activity in Wistar rat assessed as mount frequency at 5 mg/kg, po pre-treated for 30 mins followed by female rat introduction and measured up to 3 hrs (reference value: 5.8 +/- 2.1); details: time min <=210
# Rattus norvegicus [12] = assay: Induction of libido-enhancing activity in Wistar rat assessed as intromission frequency at 5 mg/kg, po pre-treated for 30 mins followed by female rat introduction and measured up to 3 hrs (reference value: 35 +/- 5); details: time min <=210
# Rattus norvegicus [13] = assay: Induction of libido-enhancing activity in Wistar rat assessed as intromission latency time at 5 mg/kg, po pre-treated for 30 mins followed by female rat introduction and measured up to 3 hrs (reference value: 270 +/- 68 sec); details: time min <=210
# Rattus norvegicus [14] = assay: Induction of libido-enhancing activity in Wistar rat assessed as first behavior latency time at 5 mg/kg, po pre-treated for 30 mins followed by female rat introduction and measured up to 3 hrs (reference value: 200 +/- 40 sec); details: time min <=210
# Rattus norvegicus [15] = assay: Induction of libido-enhancing activity in Wistar rat assessed as number of intromission at 5 mg/kg, po pre-treated for 30 mins followed by female rat introduction and measured up to 3 hrs (reference value: 49 +/- 8.5); details: time hrs <=3.5
# Rattus norvegicus [16] = assay: Induction of libido-enhancing activity in Wistar rat assessed as number of intromission at 5 mg/kg, po pre-treated for 30 mins followed by female rat introduction (reference value: 170 +/- 32); details: 0.5 h
# Rattus norvegicus [17] = assay: Induction of libido-enhancing activity in Wistar rat assessed as number of ejaculations at 5 mg/kg, po pre-treated for 30 mins followed by female rat introduction and measured up to 1 hr (reference value: 2.2 +/- 0.4); details: time hrs <=1.5
# Rattus norvegicus [18] = assay: Induction of libido-enhancing activity in Wistar rat assessed as number of ejaculations at 5 mg/kg, po pre-treated for 30 mins followed by female rat introduction and measured up to 2 hrs (reference value: 2.2 +/- 0.3); details: time hrs <=2.5
# Rattus norvegicus [19] = assay: Induction of libido-enhancing activity in Wistar rat assessed as number of ejaculations at 5 mg/kg, po pre-treated for 30 mins followed by female rat introduction and measured up to 3 hrs (reference value: 1.2 +/- 0.3); details: time hrs <=3.5
# Rattus norvegicus [20] = assay: Induction of libido-enhancing activity in Wistar rat assessed as number of ejaculations at 5 mg/kg, po pre-treated for 30 mins followed by female rat introduction (reference value: 5.5 +/- 0.6); details: 0.5 h
compound,measurement,setting,value
"CC[C@H](C)[C@@H]1NC(=O)[C@H](C)NC(=O)[C@H](C)NC(=O)[C@H]([C@@H](C)O)NC(=O)[C@H](Cc2ccccc2)NC(=O)[C@@H]2CSSC[C@@H](C(=O)N[C@@H](Cc3ccc(O)cc3)C(=O)N[C@@H](CCCCN)C(=O)N[C@@H](CC(N)=O)C(=O)O)NC(=O)[C@H](C(C)C)NC(=O)[C@H](CCCCN)NC(=O)[C@H](CO)NC(=O)[C@H](CCCCN)NC(=O)[C@@H]3CSSC[C@H](NC(=O)[C@H](CO)NC(=O)[C@H](CCC(=O)O)NC(=O)CNC(=O)[C@@H](NC(=O)[C@@H]4CCCN4C(=O)[C@H](Cc4ccccc4)NC(=O)CN)CSSC[C@H](NC(=O)CNC1=O)C(=O)N[C@@H](CO)C(=O)N3)C(=O)N[C@@H](C(C)C)C(=O)N[C@@H](Cc1ccc(O)cc1)C(=O)N[C@@H]([C@@H](C)CC)C(=O)N1CCC[C@H]1C(=O)N2 (H-GFPCGESCVYIPCFTAAIGCSCKSKVCYKN-OH; disulfide 4-20, 8-22, 13-27)",Activity,Rattus norvegicus [1],67
same,Activity,Rattus norvegicus [2],69
same,Activity,Rattus norvegicus [3],19
same,Activity,Rattus norvegicus [4],9.7
same,Activity,Rattus norvegicus [5],5.8
same,Activity,Rattus norvegicus [6],3.2
same,Activity,Rattus norvegicus [7],5.5
same,Time,Rattus norvegicus [8],690 s
same,Time,Rattus norvegicus [9],1000 s
same,Activity,Rattus norvegicus [10],91%
same,Activity,Rattus norvegicus [11],3.1
same,Activity,Rattus norvegicus [12],28
same,Time,Rattus norvegicus [13],78 s
same,Time,Rattus norvegicus [14],76 s
same,Activity,Rattus norvegicus [15],44
same,Activity,Rattus norvegicus [16],180
same,Activity,Rattus norvegicus [17],1.5
same,Activity,Rattus norvegicus [18],3
same,Activity,Rattus norvegicus [19],2
same,Activity,Rattus norvegicus [20],6.5
CC(=O)CC(O)(CC(C)=O)C(C)=O.CCCc1nn(C)c2c(=O)nc(-c3cc(S(=O)(=O)N4CCN(C)CC4)ccc3OCC)[nH]c12,Activity,Rattus norvegicus [1],63
same,Activity,Rattus norvegicus [2],65
same,Activity,Rattus norvegicus [3],26
same,Activity,Rattus norvegicus [4],2.3
same,Activity,Rattus norvegicus [5],6.7
same,Activity,Rattus norvegicus [6],8.3
same,Activity,Rattus norvegicus [7],6
same,Time,Rattus norvegicus [8],860 s
same,Time,Rattus norvegicus [9],940 s
same,Activity,Rattus norvegicus [10],85%
same,Activity,Rattus norvegicus [11],4.7
same,Activity,Rattus norvegicus [12],23
same,Time,Rattus norvegicus [13],96 s
same,Time,Rattus norvegicus [14],96 s
same,Activity,Rattus norvegicus [15],38
same,Activity,Rattus norvegicus [16],180
same,Activity,Rattus norvegicus [17],2
same,Activity,Rattus norvegicus [18],2.8
same,Activity,Rattus norvegicus [19],2.2
same,Activity,Rattus norvegicus [20],7.7
